Laboratory results reported in the supplement of paper PMC11061612.

Columns and labels:
Test in all cases: Bliss excess, mean over the matrix (fraction); higher = more synergy
[1] = tested on: CCRF-CEM (T-Lymphoblastic Leukemia)
Procedure, shortened: (§1)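 Cell lines grown in DMEM/F12 or RPMI with 10% FBS were plated in 1536-well plates and held 24 hours at 37°C, 5% CO2 before 72 hours of exposure to two-drug dose matrices, with DMSO typically at 0.2%. CellTiter-Glo 2.0 luminescence gave viability, which was converted to inhibition. Vehicle wells were set to 0 and blank wells to 1. Combination Emax is the second-highest inhibition in the matrix, and Bliss excess is the observed combination effect minus the expected EA + EB − EA·EB, where EA and EB are the single-agent effects.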

[2] = tested on: Ramos-2G6-4C10 (Burkitt's Lymphoma)
Procedure, shortened: as §1

[3] = tested on: HCC1806 (Breast Carcinoma)
Procedure, shortened: as §1

[4] = tested on: RO82-W-1 (Thyroid Gland Carcinoma)
Procedure, shortened: as §1

[5] = tested on: TCCSUP (Bladder Carcinoma)
Procedure, shortened: as §1

[6] = tested on: CAL-148 (Breast Carcinoma)
Procedure, shortened: as §1

[7] = tested on: HuP-T4 (Pancreatic Carcinoma)
Procedure, shortened: as §1

T98G (Glioblastoma) = tested on: T98G (Glioblastoma)
Procedure, shortened: as §1

[8] = tested on: COLO-205 (Colorectal Carcinoma)
Procedure, shortened: as §1

HOS (Osteosarcoma) = tested on: HOS (Osteosarcoma)
Procedure, shortened: as §1

[9] = tested on: CaR-1 (Colorectal Carcinoma)
Procedure, shortened: as §1

[10] = tested on: Hs-578-T (Breast Carcinoma)
Procedure, shortened: as §1

[11] = tested on: NCI-H2085 (Non-Small Cell Lung Carcinoma)
Procedure, shortened: as §1

[12] = tested on: ME-1 (Acute Myeloid Leukemia)
Procedure, shortened: as §1

[13] = tested on: DEL (T-Cell Non-Hodgkin's Lymphoma)
Procedure, shortened: as §1

[14] = tested on: UM-UC-3 (Bladder Carcinoma)
Procedure, shortened: as §1

[15] = tested on: Daoy (Other Solid Carcinomas)
Procedure, shortened: as §1

[16] = tested on: KP-1N (Pancreatic Carcinoma)
Procedure, shortened: as §1

[17] = tested on: LU-135 (Small Cell Lung Carcinoma)
Procedure, shortened: as §1

[18] = tested on: HT-1376 (Bladder Carcinoma)
Procedure, shortened: as §1

Row | SMILES | Bliss excess [1] | Bliss excess [2] | Bliss excess [3] | Bliss excess [4] | Bliss excess [5] | Bliss excess [6] | Bliss excess [7] | Bliss excess (T98G (Glioblastoma)) | Bliss excess [8] | Bliss excess (HOS (Osteosarcoma)) | Bliss excess [9] | Bliss excess [10] | Bliss excess [11] | Bliss excess [12] | Bliss excess [13] | Bliss excess [14] | Bliss excess [15] | Bliss excess [16] | Bliss excess [17] | Bliss excess [18]
1 | CC1(C)CCC(CN2CCN(c3ccc(C(=O)NS(=O)(=O)c4ccc(NCC5CCOCC5)c([N+](=O)[O-])c4)c(Oc4cnc5[nH]ccc5c4)c3)CC2)=C(c2ccc(Cl)cc2)C1 [Venetoclax] + C[C@@H](Nc1cc(F)cc(F)c1)c1cc(C(=O)N(C)C)cc2c(=O)cc(N3CCOCC3)oc12 [AZD8186] (first compound max 1 µM, 7x7, partner max 3 µM) | 0.012 | 0.0107 | -0.0149 | -0.0455 | -0.0442 | 0.0101 | 0.0033 | -0.0064 | 0.0279 | -0.0262 | -0.0366 | -0.0314 | 0.0025 | 0.0239 | 0.0055 | -0.0164 | -0.0073 | 0.0036 | 0.121 | -0.0446
2 | CC1(C)CCC(CN2CCN(c3ccc(C(=O)NS(=O)(=O)c4ccc(NCC5CCOCC5)c([N+](=O)[O-])c4)c(Oc4cnc5[nH]ccc5c4)c3)CC2)=C(c2ccc(Cl)cc2)C1 [Venetoclax] + Cc1cc2ncnn2cc1Nc1ncc2c(n1)n(C1CCOCC1)c(=O)n2C [AZD7648] (first compound max 1 µM, 7x7, partner max 10 µM) | 0.044 | 0.0435 | 0.0043 | -0.0346 | -0.0444 | -0.0143 | -0.0151 | -0.0693 | -0.0584 | -0.0019 | -0.048 | -0.0162 | -0.0535 | 0.0319 | 0.0365 | -0.0325 | -0.0129 | -0.0217 | -0.087 | -0.0226
3 | Cc1nc(Nc2ncc(C(=O)Nc3c(C)cccc3Cl)s2)cc(N2CCN(CCO)CC2)n1 [Dasatinib] + CC(=O)Nc1cccc(-n2c(=O)n(C3CC3)c(=O)c3c(Nc4ccc(I)cc4F)n(C)c(=O)c(C)c32)c1 [Trametinib] (first compound max 2 µM, 7x7, partner max 1 µM) | -0.0032 | 0 | -0.0461 | -0.0202 | -0.0443 | -0.0252 | 0.0075 | 0.0187 | -0.128 | -0.0361 | -0.0711 | -0.0526 | 0.0168 | 0.0126 | 0.0076 | 0.112 | 0.0053 | 0.0493 | -0.0258 | 0.0158
4 | Cc1c2c(nn1C)CSCc1cc(n(C)n1)CSc1cc(c3ccccc3c1)OCCCc1c(C(=O)O)n(C)c3c-2c(Cl)ccc13 [AZD5991] + Cc1cc2ncnn2cc1Nc1ncc2c(n1)n(C1CCOCC1)c(=O)n2C [AZD7648] (first compound max 1 µM, 7x7, partner max 10 µM) | 0.0837 | 0.0227 | -0.0203 | -0.0503 | -0.0203 | -0.0121 | -0.0562 | -0.0663 | -0.0604 | -0.0036 | -0.0365 | -0.0058 | -0.0493 | 0.013 | 0.0005 | 0.0053 | -0.0069 | -0.0518 | -0.0237 | -0.0218
5 | Cc1cc2ncnn2cc1Nc1ncc2c(n1)n(C1CCOCC1)c(=O)n2C [AZD7648] + O=C(c1cc(Cc2n[nH]c(=O)c3ccccc23)ccc1F)N1CCN(C(=O)C2CC2)CC1 [Olaparib] (first compound max 10 µM, 7x7, partner max 10 µM) | -0.0213 | -0.0281 | -0.0343 | -0.0639 | -0.0465 | -0.0545 | -0.0432 | -0.0965 | -0.0345 | 0.0023 | -0.0399 | -0.0325 | -0.0444 | -0.004 | 0.0174 | -0.0297 | -0.0102 | 0.0211 | 0.0148 | -0.0549
6 | NC1(C(=O)N[C@@H](CCO)c2ccc(Cl)cc2)CCN(c2ncnc3[nH]ccc23)CC1 [Capivasertib] + C[C@@H]1COCCN1C2=NC(=NC(=C2)C3(CC3)[S@](=N)(=O)C)C4=C5C=CNC5=NC=C4 [AZD6738] (first compound max 10 µM, 7x7, partner max 10 µM) | 0.0092 | 0.0183 | -0.0333 | -0.0247 | -0.0312 | 0.0222 | -0.0333 | -0.0557 | 0.0092 | -0.0463 | -0.0194 | -0.0739 | -0.0192 | -0.0086 | 0.0172 | 0.0085 | -0.0462 | -0.0824 | 0.0393 | -0.0153
7 | Cc1c2c(nn1C)CSCc1cc(n(C)n1)CSc1cc(c3ccccc3c1)OCCCc1c(C(=O)O)n(C)c3c-2c(Cl)ccc13 [AZD5991] + CN(C)CCCOc1ccc(-c2ccc3ncc4c(c3c2)n(C2CCOCC2)c(=O)n4C)cn1 [AZD0156] (first compound max 1 µM, 7x7, partner max 1 µM) | 0.0467 | 0.0226 | 0.0346 | 0.0257 | -0.0332 | 0.0528 | 0.0351 | 0.008 | 0.0261 | -0.0026 | -0.0271 | 0.0816 | -0.0266 | 0.0237 | -0.0174 | -0.0084 | 0.0145 | -0.0132 | -0.0413 | 0.0039
8 | COc1nnc2ccc(N3CCC(c4ccc(OCCN5CCN(C)C(=O)[C@H]5C)cc4)CC3)nn12 [AZD5153] + CCN(CCO)CCCOc1ccc2c(Nc3cc(CC(=O)Nc4cccc(F)c4)[nH]n3)ncnc2c1 [AZD2811] (first compound max 1 µM, 7x7, partner max 1 µM) | -0.0407 | -0.0004 | -0.042 | -0.0483 | -0.0398 | -0.0361 | -0.0595 | -0.014 | -0.0595 | -0.0093 | -0.0663 | -0.0345 | -0.0594 | -0.0534 | -0.0462 | 0.0346 | -0.0369 | -0.0273 | -0.0449 | -0.0381
9 | CN(C)CCCOc1ccc(-c2ccc3ncc4c(c3c2)n(C2CCOCC2)c(=O)n4C)cn1 [AZD0156] + C[C@@H]1COCCN1C2=NC(=NC(=C2)C3(CC3)[S@](=N)(=O)C)C4=C5C=CNC5=NC=C4 [AZD6738] (first compound max 1 µM, 7x7, partner max 10 µM) | 0.0002 | 0.0933 | 0.0241 | -0.0649 | -0.0255 | -0.0441 | 0.0118 | -0.0297 | -0.0057 | 0.024 | -0.0449 | -0.0157 | 0.0274 | -0.107 | 0.0293 | 0.0101 | 0.0287 | 0.0261 | -0.032 | -0.0193
10 | Cc1c2c(nn1C)CSCc1cc(n(C)n1)CSc1cc(c3ccccc3c1)OCCCc1c(C(=O)O)n(C)c3c-2c(Cl)ccc13 [AZD5991] + CC1(C)CCC(CN2CCN(c3ccc(C(=O)NS(=O)(=O)c4ccc(NCC5CCOCC5)c([N+](=O)[O-])c4)c(Oc4cnc5[nH]ccc5c4)c3)CC2)=C(c2ccc(Cl)cc2)C1 [Venetoclax] (first compound max 1 µM, 7x7, partner max 1 µM) | 0.0935 | 0.0339 | -0.0299 | -0.0523 | -0.0662 | -0.0177 | -0.0106 | 0.0004 | -0.0335 | 0.0413 | -0.0225 | -0.0513 | -0.0042 | 0.0654 | 0.0081 | -0.0062 | 0.0496 | -0.0262 | 0.0178 | -0.0465
11 | Cc1c2c(nn1C)CSCc1cc(n(C)n1)CSc1cc(c3ccccc3c1)OCCCc1c(C(=O)O)n(C)c3c-2c(Cl)ccc13 [AZD5991] + Cn1cnc2c(F)c(Nc3ccc(Br)cc3Cl)c(C(=O)NOCCO)cc21 [Selumetinib] (first compound max 1 µM, 7x7, partner max 3 µM) | 0.0383 | -0.0074 | 0.0254 | -0.0528 | -0.0066 | 0.0184 | 0.113 | 0.0157 | 0.0145 | -0.0261 | -0.03 | -0.0568 | -0.0344 | 0.162 | 0.0049 | 0.0332 | 0.02 | -0.029 | -0.0003 | 0.0144
12 | COc1cccc(OCCCN)c1-c1cc(Nc2cnc(C#N)cn2)n[nH]1 [Prexasertib] + CN(C)CCCOc1ccc(-c2ccc3ncc4c(c3c2)n(C2CCOCC2)c(=O)n4C)cn1 [AZD0156] (first compound max 1 µM, 7x7, partner max 1 µM) | -0.058 | 0.0693 | -0.0262 | -0.0684 | -0.0021 | -0.0115 | -0.0273 | 0.0132 | 0.061 | -0.0434 | -0.0442 | 0.0101 | 0.006 | -0.0167 | -0.0201 | -0.0174 | 0.0208 | 0.0236 | 0.0508 | -0.007
13 | CS(=O)(=O)CCNCc1ccc(-c2ccc3ncnc(Nc4ccc(OCc5cccc(F)c5)c(Cl)c4)c3c2)o1 [Lapatinib] + C[C@@H](Oc1cc(-c2cnn(C3CCNCC3)c2)cnc1N)c1c(Cl)ccc(F)c1Cl [Crizotinib] (first compound max 10 µM, 7x7, partner max 10 µM) | -0.0185 | -0.113 | -0.0266 | -0.0392 | -0.0611 | -0.0105 | 0.0261 | -0.0861 | -0.0261 | 0.0138 | -0.0084 | -0.0984 | -0.0813 | -0.0344 | 0.0074 | -0.0739 | -0.0297 | -0.0435 | 0.0255 | -0.0343
14 | CC(=O)c1c(C)c2cnc(Nc3ccc(N4CCNCC4)cn3)nc2n(C2CCCC2)c1=O [Palbociclib] + Cn1cnc2c(F)c(Nc3ccc(Br)cc3Cl)c(C(=O)NOCCO)cc21 [Selumetinib] (first compound max 10 µM, 7x7, partner max 10 µM) | 0.0385 | -0.023 | 0.0382 | -0.0414 | -0.0438 | -0.0462 | 0.0396 | -0.0103 | -0.081 | 0.0109 | -0.0229 | 0.0135 | 0.0018 | -0.0321 | 0.0224 | -0.0001 | -0.0082 | -0.0715 | 0.0056 | -0.047
